# Source: patent US12185723B2, “Herbicidally active 3-phenylisoxazoline-5-carboxamides of s-containing cyclopentenylcarboxylic esters” (Bayer Aktiengesellschaft, priority 2019, dated 2025)
# What was measured:
# Type in all cases: in vivo
# DIGSA = experiment: Post-emergence herbicidal action against DIGSA; settings: visual rating about 3 weeks after treatment
# Summary of the method: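 Greenhouse-grown plants sprayed at one-leaf stage (2–3 weeks after sowing) with WP or EC formulations as aqueous suspension/emulsion plus 0.5% additive, 600 l/ha water. Activity rated visually about 3 weeks later versus untreated controls, 100% = plants dead, 0% = like controls.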
# Lolium rigidum = experiment: Post-emergence herbicidal action against LOLRI; settings: visual rating about 3 weeks after treatment
# Summary of the method: (§1)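 Greenhouse pot test in sandy loam; plants sprayed at the one-leaf stage (2–3 weeks after sowing) with WP or EC formulations in water plus 0.5% additive at 600 l/ha. Activity rated visually about 3 weeks later against untreated controls (0% = like control, 100% = plants dead).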
# Matricaria inodora = experiment: Post-emergence herbicidal action against MATIN
# Summary of the method: as §1
# Abutilon theophrasti = experiment: Post-emergence herbicidal action against ABUTH; settings: visual rating about 3 weeks after treatment
# Summary of the method: as §1
# Veronica persica = experiment: Post-emergence herbicidal action against VERPE
# Summary of the method: as §1
# Setaria viridis = experiment: Post-emergence herbicidal action against SETVI; settings: visual rating about 3 weeks after treatment
# Summary of the method: as §1
# Pharbitis purpurea = experiment: Post-emergence herbicidal action against PHBPU
# Summary of the method: as §1
# Stellaria media = experiment: Post-emergence herbicidal action against STEME
# Summary of the method: as §1
# Avena fatua = experiment: Post-emergence herbicidal action against AVEFA; settings: visual rating about 3 weeks after treatment
# Summary of the method: as §1
# Polygonum convolvulus = experiment: Post-emergence herbicidal action against POLCO
# Summary of the method: as §1
# Amaranthus retroflexus = experiment: Post-emergence herbicidal action against AMARE
# Summary of the method: as §1
# Hordeum murinum = experiment: Post-emergence herbicidal action against HORMU
# Summary of the method: as §1
# Alopecurus myosuroides = experiment: Post-emergence herbicidal action against ALOMY; settings: visual rating about 3 weeks after treatment
# Summary of the method: as §1
# Viola tricolor = experiment: Post-emergence herbicidal action against VIOTR
# Protocol: Post-Emergence Herbicidal Action Against Harmful Plants and Crop Plant Compatibility Seeds of monocotyledonous and dicotyledonous weeds and crop plants are placed in sandy loam in plastic or wood-fibre pots, covered with soil and cultivated in a greenhouse under controlled growth conditions. 2 to 3 weeks after sowing, the test plants are treated at the one-leaf stage. The compounds of the invention, formulated in the form of wettable powders (WP) or as emulsion concentrates (EC), are then sprayed onto the green parts of the plants as aqueous suspension or emulsion with addition of 0.5% additive at a water application rate of 600 l/ha (converted). After the test plants have been kept in the greenhouse under optimum growth conditions for about 3 weeks, the activity of the preparations is rated visually in comparison to untreated controls. For example, 100% activity=the plants have died, 0% activity=like control plants. [table]
# Echinochloa crus-galli = experiment: Post-emergence herbicidal action against ECHCG; settings: visual rating about 3 weeks after treatment
# Summary of the method: as §1
# [1] = 80 g a.i./ha, visual rating about 3 weeks after treatment
Compound,Herbicidal action against [%] DIGSA (DIGSA; 20 g a.i./ha) [%],Herbicidal action against [%] DIGSA (DIGSA; 80 g a.i./ha) [%],Herbicidal action against [%] LOLRI (Lolium rigidum; 20 g a.i./ha) [%],Herbicidal action against [%] LOLRI (Lolium rigidum; 80 g a.i./ha) [%],Herbicidal action against [%] MATIN (Matricaria inodora; [1]) [%],Herbicidal action against [%] ABUTH (Abutilon theophrasti; 80 g a.i./ha) [%],Herbicidal action against [%] VERPE (Veronica persica; 20 g a.i./ha) [%],Herbicidal action against [%] VERPE (Veronica persica; 80 g a.i./ha) [%],Herbicidal action against [%] SETVI (Setaria viridis; 20 g a.i./ha) [%],Herbicidal action against [%] SETVI (Setaria viridis; 80 g a.i./ha) [%],Herbicidal action against [%] PHBPU (Pharbitis purpurea; 80 g a.i./ha) [%],Herbicidal action against [%] STEME (Stellaria media; 80 g a.i./ha) [%],Herbicidal action against [%] AVEFA (Avena fatua; 20 g a.i./ha) [%],Herbicidal action against [%] AVEFA (Avena fatua; 80 g a.i./ha) [%],Herbicidal action against [%] POLCO (Polygonum convolvulus; 20 g a.i./ha) [%],Herbicidal action against [%] POLCO (Polygonum convolvulus; 80 g a.i./ha) [%],Herbicidal action against [%] AMARE (Amaranthus retroflexus; 20 g a.i./ha) [%],Herbicidal action against [%] AMARE (Amaranthus retroflexus; [1]) [%],Herbicidal action against [%] HORMU (Hordeum murinum; 20 g a.i./ha) [%],Herbicidal action against [%] HORMU (Hordeum murinum; 80 g a.i./ha) [%],further results
CSCCOC(=O)C1C=CC(NC(=O)C2(C(F)(F)F)CC(c3cccc(C#N)c3)=NO2)C1 (mixture of isomers) [Example I-44],90,90,90,90,80,80,90,90,80,90,80,90,80,90,80,90,80,80,80,80,Herbicidal action against [%] ALOMY (Alopecurus myosuroides; 20 g a.i./ha): 90%; Herbicidal action against [%] ALOMY (Alopecurus myosuroides; 80 g a.i./ha): 90%; Herbicidal action against [%] VIOTR (Viola tricolor; 80 g a.i./ha): 90%; Herbicidal action against [%] ECHCG (Echinochloa crus-galli; 20 g a.i./ha): 80%; Herbicidal action against [%] ECHCG (Echinochloa crus-galli; 80 g a.i./ha): 80%
CSCCOC(=O)C1C=CC(NC(=O)C2(C)CC(c3cc(F)cc(F)c3)=NO2)C1 (stereo not drawn) [Example I-06],90,90,100,100,80,80,80,90,80,90,80,90,100,100,90,90,80,80,90,90,Herbicidal action against [%] ABUTH (Abutilon theophrasti; 20 g a.i./ha): 80%; Herbicidal action against [%] PHBPU (Pharbitis purpurea; 20 g a.i./ha): 80%; Herbicidal action against [%] STEME (Stellaria media; 20 g a.i./ha): 90%; Herbicidal action against [%] ALOMY (Alopecurus myosuroides; 20 g a.i./ha): 100%; Herbicidal action against [%] ALOMY (Alopecurus myosuroides; 80 g a.i./ha): 100%; Herbicidal action against [%] VIOTR (Viola tricolor; 20 g a.i./ha): 90%; Herbicidal action against [%] ECHCG (Echinochloa crus-galli; 20 g a.i./ha): 90%; Herbicidal action against [%] ECHCG (Echinochloa crus-galli; 80 g a.i./ha): 90%
CSCCOC(=O)C1C=CC(NC(=O)C2(C(F)(F)F)CC(c3cc(F)cc(F)c3)=NO2)C1 (stereo not drawn) [Example I-17],90,90,100,100,80,80,80,80,80,80,80,90,100,100,80,80,80,80,90,90,Herbicidal action against [%] MATIN (Matricaria inodora; 20 g a.i./ha): 80%; Herbicidal action against [%] ABUTH (Abutilon theophrasti; 20 g a.i./ha): 80%; Herbicidal action against [%] PHBPU (Pharbitis purpurea; 20 g a.i./ha): 80%; Herbicidal action against [%] STEME (Stellaria media; 20 g a.i./ha): 80%; Herbicidal action against [%] ALOMY (Alopecurus myosuroides; 20 g a.i./ha): 90%; Herbicidal action against [%] ALOMY (Alopecurus myosuroides; 80 g a.i./ha): 90%; Herbicidal action against [%] VIOTR (Viola tricolor; 20 g a.i./ha): 80%; Herbicidal action against [%] VIOTR (Viola tricolor; 80 g a.i./ha): 80%; Herbicidal action against [%] ECHCG (Echinochloa crus-galli; 20 g a.i./ha): 80%; Herbicidal action against [%] ECHCG (Echinochloa crus-galli; 80 g a.i./ha): 90%
C=CC1(C(=O)NC2C=CC(C(=O)OCCSC)C2)CC(c2cc(F)cc(F)c2)=NO1 (stereo not drawn) [Example I-18],90,90,90,90,90,90,90,90,80,80,80,90,90,100,90,90,90,90,100,100,Herbicidal action against [%] MATIN (Matricaria inodora; 20 g a.i./ha): 90%; Herbicidal action against [%] ABUTH (Abutilon theophrasti; 20 g a.i./ha): 90%; Herbicidal action against [%] PHBPU (Pharbitis purpurea; 20 g a.i./ha): 80%; Herbicidal action against [%] STEME (Stellaria media; 20 g a.i./ha): 90%; Herbicidal action against [%] ALOMY (Alopecurus myosuroides; 20 g a.i./ha): 100%; Herbicidal action against [%] ALOMY (Alopecurus myosuroides; 80 g a.i./ha): 100%; Herbicidal action against [%] VIOTR (Viola tricolor; 20 g a.i./ha): 90%; Herbicidal action against [%] VIOTR (Viola tricolor; 80 g a.i./ha): 80%; Herbicidal action against [%] ECHCG (Echinochloa crus-galli; 20 g a.i./ha): 90%; Herbicidal action against [%] ECHCG (Echinochloa crus-galli; 80 g a.i./ha): 90%
CSCCOC(=O)C1C=CC(NC(=O)C2(CCl)CC(c3cc(F)cc(F)c3)=NO2)C1 (stereo not drawn) [Example I-31],90,90,90,90,80,80,80,80,80,90,90,80,90,90,90,90,80,80,90,90,Herbicidal action against [%] MATIN (Matricaria inodora; 20 g a.i./ha): 80%; Herbicidal action against [%] STEME (Stellaria media; 20 g a.i./ha): 80%; Herbicidal action against [%] ALOMY (Alopecurus myosuroides; 20 g a.i./ha): 90%; Herbicidal action against [%] ALOMY (Alopecurus myosuroides; 80 g a.i./ha): 90%; Herbicidal action against [%] VIOTR (Viola tricolor; 20 g a.i./ha): 80%; Herbicidal action against [%] VIOTR (Viola tricolor; 80 g a.i./ha): 80%; Herbicidal action against [%] ECHCG (Echinochloa crus-galli; 20 g a.i./ha): 90%; Herbicidal action against [%] ECHCG (Echinochloa crus-galli; 80 g a.i./ha): 90%
